In a melting point compilation (Tetko et al.; mined from patent text by program, amines drawn as free bases though some values may be those of a salt):
Residues, ends and D or L forms follow the SMILES beside them.

melting point [°C]	Compound
68 to 71	COc1cc(NS(=O)(=O)CCCCl)cc(OC)c1
142 to 143	CC(C)(C)c1cc(NC(=O)Nc2ccc(OCCN3CCOCC3)c3ccccc23)n(-c2ccccc2)n1
239 to 240	CC1=C(C#N)C(=C(C#N)C#N)OC1(C)c1ccc(Cl)cc1Cl (stereo unspecified)
150 to 151	CC(C(=O)O)c1ccc2c(c1)Sc1ncccc1CC2=O (stereo unspecified)
208 to 211	O=C(Cn1nc(-c2ccccc2O)nc1-c1ccccc1O)NCCO
242 to 245	CCCCc1oc2ccccc2c1C(=O)Nc1ccc2c(Br)c(OCc3nn[nH]n3)ccc2c1
174 to 180	O=C(O)c1cn2c3c(c(N4CCCC4)c(F)cc3c1=O)CCN2Cc1ccccc1
> 230	Cc1c(N2CCC(N)C2)c(F)cc2c(=O)c(C(=O)O)cn(C3COC3)c12 (stereo unspecified)
211 to 214	COc1ccccc1CN1Cc2c(-c3ccccc3)c3cc(C)c(C)cc3c(=O)n2CC1=O
79 to 82	CCOC(=O)CC[C@H](NC(=O)c1ccc(N)c(C)c1)C(=O)OCC
157 to 159	Fc1ccccc1-c1cccc2[nH]c3c(c12)CCN(Cc1ccccc1)CC3
123 to 124	CCCCCCCCCCCCCCCCNc1ccc(C(=O)NS(=O)(=O)c2ccc(C)cc2)cc1
139 to 140	CS(=O)(=O)c1ccc(-c2c(-c3ccccc3)c(=O)c2=O)cc1
118 to 121	CCOC(=O)C(NC(=O)C[N+](=O)[O-])C(=O)OCC
110 to 111	CCOC(=O)C=Cc1ccc(C(=O)Cc2ccccc2)cc1
> 250	CC(=O)Nc1ccc2c(c1)C(=O)NC2=O
50	CC(C)(C)C(=O)C(Oc1ccc(Cl)cc1)c1cccnc1 (stereo unspecified)
156 to 158	O=C(O)c1ccc(C(F)(F)F)c([N+](=O)[O-])c1
183 to 185	O=C(O)COc1c(Br)cc(-c2ccc(-c3c(Cc4ccccc4)sc4ccccc34)cc2)cc1Br
153 to 154	CCOC(=O)Cn1c(C(=O)NCc2nnc(C)n2-c2sc(C)cc2C(=O)c2ccccc2Cl)cc2ccccc21
225 to 226	Cc1ccc(C(=O)Nc2c(NC(=O)CN3CCOCC3)ccc3c2C(=O)c2ccccc2C3=O)cc1

melting point [°C]	Compound
242 to 245	CCCc1ccc(O)c2c(=O)cc(-c3nnn[nH]3)oc12
220 to 222	C#CCn1cnc2c(N)nc3ccccc3c21
82 to 83	COCC(C#N)=Cc1ccc(OC)c(OC)c1
128	O=P(O)(O)C1=CCCCC1
148 to 149	CC(C)(C)OC(=O)N1CCC2(CC1)C(=O)N(CC(=O)O)CN2CC1CCCCC1
129 to 131	CCN1c2ncc(CCc3cccc(N)c3)cc2C(=O)N(C)c2cccnc21
262	NS(=O)(=O)c1ccc(-c2cc(-c3nc(-c4ccc(C(F)(F)F)cc4)cc(C(F)(F)F)n3)ccn2)s1
130 to 132	CC(Cl)=CCC1CCC2C(C=CC3=CCCc4c3n2c2ccncc42)C1 (stereo unspecified)
175 to 177	COc1ccc(NS(=O)(=O)c2cc3cc(Cl)ccc3oc2=O)cc1
259 to 263	N#CC(C(=O)Nc1ccccc1)C(=O)c1nn(-c2ccccc2)c2c1Cc1ccc(Cl)cc1-2 (stereo unspecified)
163	CN(C)Cc1ccc(SC2CCN(C(c3ccccc3)(c3ccccc3)c3ccccc3)CC2)cc1
202 to 203	O=C1CCCc2ccc(OCCCCN3CCN(c4cccc5ccc(F)cc45)CC3)nc2N1
143 to 145	CC(C)(C)OC(=O)N1CCC(N2C(=O)OCc3ccccc32)CC1
278	NC(=O)Nc1cccc2c1C(=O)c1c-2n[nH]c1-c1ccco1
169 to 172	NC(=O)CC(NC(=O)C(N)CO)C(=O)NC(Cc1ccccc1)C(N)=O (stereo not drawn) (H-Ser-Asn-Phe-NH2; configuration not given here)
190 to 191	O=C(N[C@H](Cc1cccc(C(F)(F)F)c1)[C@@H](O)c1ccc(F)cc1)C1CCCCC1 (racemic)
132 to 133	CC(C)(C)c1ccc(CCCCC(O)CC2CCCC2)cc1NC(=O)CC1c2ccccc2Oc2ccccc21 (stereo unspecified)
211 to 213	CCOCc1nc2c(N)nc3ccccc3c2n1CCN1C(C)=NOC12CCCC2
259 to 262	NC(=O)c1cc2ccc(F)cc2nc1N
174	NC(=O)C(=O)NC(C(=O)O)c1ccco1 (stereo unspecified)
166 to 167	Cc1nc(C(=O)NCCN2CCOCC2)cc(-c2cccc([N+](=O)[O-])c2)c1C(C)O (stereo unspecified)

Further lines, the compound ahead of its results:

Compound	melting point [°C]
CCOc1ccc(C2=NN(C(CC)CCCCC(=O)O)C(=O)C3CCCCC23)cc1OCC (stereo unspecified)	90 to 91
Cc1cccc2c(=O)n(CCCN3CC=C(c4ccc(Cl)cc4)CC3)c(=O)[nH]c12	215 to 217
O=C(O)c1cccc(CNC(=O)C2Cc3ccccc3N2S(=O)(=O)c2ccc(-c3cccc(C(F)(F)F)c3)cc2)c1 (stereo unspecified)	96
CC12C=CC(=O)C(N)=C1C=CC1C2CCC2(C)C(=O)CCC12 (stereo unspecified)	206 to 208
Cc1ccc(NC(=O)N2CCN(CCc3ccc(-c4cccc(N)n4)cc3)CC2)cc1C	122 to 125
CCC(CC)n1nc(-c2ccc(OC)cc2OC)c2cccc(C(F)(F)F)c21	115 to 116
Fc1cc(OCc2ccccc2)ccc1-c1ncc(Br)cn1	124
N#Cc1cnc(N[C@H]2CC[C@H](O)CC2)c([N+](=O)[O-])c1	157 to 158
Cc1cc(-c2cc(C(F)(F)F)n3cnc(-c4ccncc4)c3n2)ccc1C(F)(F)F	225
Oc1ccc(CNC2=NCCc3ccccc32)cc1	177 to 179
O=C(O)c1ccc(NC(=O)c2ccc(Cl)cc2)cc1	> 260
CC(C)(C)NCC(O)c1cc(Br)c(N)c(C(N)=O)c1 (stereo unspecified)	135 to 145
N[C@@H](Cc1ccc(C(F)(F)F)cc1)[C@H](O)c1ccoc1 (racemic)	91 to 92
CCCCOCCOc1ccc(-c2ccc3c(c2)C=C(C(=O)Nc2ccc(CCCn4cnnc4)cc2)CCN3CC(C)C)cc1	165 to 167
CSc1ccc(/C=C2\C=C(CCN(O)C(N)=O)c3ccccc32)cc1	175 to 176
OCC1CC(n2c(SCc3ccccc3)nc3cc(Cl)c(Cl)cc32)C(O)C1O (stereo unspecified)	160 to 162
Cc1cccc(C)c1NC(=S)CC(=O)Nc1ccc(-c2ncn(-c3ccc(OC(F)(F)F)cc3)n2)cc1	178 to 182
COc1cccc(-c2ncc(C(=O)N(C)Cc3cccc(O)c3)s2)c1F	140
COc1cnn(C)c(=O)c1Cl	189 to 191
COc1cccc2cc(-c3ccc(OCCN4CCCC4)cc3)sc12	88 to 90
COc1cc(C)c2[nH]ccc2c1C(N)(c1nc2cc(C#N)ccc2[nH]1)C(F)(F)F (single isomer, unassigned; (-))	255
O=C(C(c1ccccc1)n1cnc2[nH]ncc2c1=S)N1CCCCCC1 (stereo unspecified)	> 230
Cc1ccc2c(c1)C(=O)c1ccccc1CO2	100 to 103
COC(=O)c1ccc(C(C)=O)o1	101 to 102
CCSc1[nH]c2cccc3c2c1CC1C3C=C(C)CN1C (stereo unspecified)	168 to 169
Cc1c(C(=O)Nc2ccc(N3CCC(N4CCOCC4)CC3)c(C#N)c2)cnn1-c1ccccn1	251
O=C(O)c1ccc(NC(=O)C(CS)Cc2ccccc2)cc1O (stereo unspecified)	166 to 170

Compound	melting point [°C]
CC(C)Oc1ccc(-n2c(C(=O)O)c(C(=O)O)c3cc(Oc4ncccc4C(N)=O)ccc32)cc1	236 to 238
Cc1cc(-c2ccc(Cl)cc2)nc(-c2cccc(-c3cccc(S(N)(=O)=O)c3)c2)n1	221
CCCCCCCCCCC1(C)OCC(C=Cc2ccc(-c3ccccc3)cc2)OO1 (stereo unspecified)	86 to 90
COC(=O)c1c(-c2ccc(F)cc2)c2cc(OCc3ccccc3)ccc2c(=O)n1CC(C)C	118 to 119
CC(=O)C1C(=O)N(C(=O)Nc2ccc(F)cc2)c2ccccc21 (stereo unspecified)	181 to 182
CCCc1nc2c(N)nc3cc(-c4cccc(C(=O)N5CCOCC5)c4)ccc3c2s1	190 to 193
O=C(O)C1=Cc2cc(Cl)cc(C=NO)c2OC1C(F)(F)F (stereo unspecified)	247 to 248
C=C(C(=O)c1ccc(OC)c(Cl)c1Cl)c1ccc(Br)cc1	110 to 116
COc1ccc(/C=C/c2ccncc2)cc1O	196 to 199
NC(=O)N(O)CC1=CCC(c2ccccc2)CC1 (stereo unspecified)	142 to 143
CC(C)CC(C)c1cc(C(C(F)(F)F)C(F)(F)F)ccc1NC(=O)c1c(C(F)(F)F)nn(C)c1Cl (stereo unspecified)	102 to 104
CC(=O)O[C@H]1C[C@@H](N=O)C(Cl)O[C@@H]1COS(=O)(=O)c1ccc(C)cc1 (stereo partly specified)	148 to 150
CCNS(=O)(=O)CC(=O)C1=C(C)NC(C)=C(C(=O)OC(C)C)C1c1cccc([N+](=O)[O-])c1 (stereo unspecified)	140 to 142
Cc1ccc(Sc2cncc3sc(C(=O)NN)cc23)cc1	176 to 178
O=[N+]([O-])c1cnc2ccc(SC(F)F)cc2c1-c1ccccc1	101 to 103
Cn1cc(-c2cc(-c3cnc4c(c3)CCC(=O)N4)ccn2)n(-c2ccc(C(C)(C)C#N)cc2)c1=O	284
CN(C)c1ccc(C(c2cc(C(C)(C)C)c(O)c(C(C)(C)C)c2)N2CCCCC2)cc1 (stereo unspecified)	184 to 185
Cc1sc2c(Br)c3ccccc3c(-c3cc(Br)c(O[C@@H](CCc4ccccc4)C(=O)O)c(Br)c3)c2c1C	176 to 177
Cc1cc(C(=O)C(C#N)C(=O)Nc2ccc(F)cc2)c(C)n1C (stereo unspecified)	171 to 172
O=S(=O)(c1ccc(F)cc1)c1ccc(S)cc1	116
CCn1cc([C@]2(c3cccc(-c4cccnc4F)c3)N=C(N)N(C)C2=O)cc1C(C)=O	109 to 111
CCC(=O)c1ccc2c(c1)OC(c1ccccc1)(c1ccccc1)O2	69 to 70.5
CN(C)CCCc1ccc2c(c1)CCCN2C(=O)c1ccc(-c2ccccc2)cc1	100 to 101
O=C1CSC(=S)N1N=c1sc2ccc(C(F)(F)F)cc2s1	285 to 288
CN1CCC2(OCCO2)C2(CCCC2)C1=O	84 to 85
N#Cc1ncc(OC2SCC(O)C(O)C2O)cc1F (stereo unspecified)	155 to 156
Sc1c(Cl)ccc(Cl)c1S	57 to 58
